Measurements published in US9717796B1, “Heat sterilizeable, premixed, ready to use dexmedetomidine solution packaged in a flexible plastic container” (SLYPHARMA, LLC, priority 2016, dated 2017).
Like-named read-outs stand apart in the source and are kept apart here.

Key:
[1] = cited from earlier work
[2] = Method: A composition was prepared containing 4.0 μg Dexmedetomidine and 50 mg dextrose to adjust tonicity with sufficient water to bring the total volume to 1 mL.
[3] = DEHP used as plasticizer in PVC bags; cited from earlier work
Remark: listed apart in the source

time the solution will be stable at room temperature ([2]; Example 1 solution (dextrose) in Nexcel bag, extrapolated from the accelerated test): about 24 months
adsorption or absorption by the ethylene-vinyl acetate copolymer inner-most bag layer ([2]; Example 1 solution, Nexcel bag, storage tests): not adsorbed or absorbed
dexmedetomidine retained after autoclaving in moist steam (5.5 mg/mL sodium chloride and 28 gram/mL sodium acetate and 320 mg/mL glacial acetic acid as buffer): 90.1%
retention of the dexmedetomidine after autoclaving in moist steam (buffer (28 g/mL sodium acetate and 320 mg/mL glacial acetic acid) with dextrose as tonicity adjusting agent, Nexcel bag): 99.4%
retention of the dexmedetomidine after autoclaving in moist steam (buffer (28 g/mL sodium acetate and 320 mg/mL glacial acetic acid) with sucrose as tonicity adjusting agent, Nexcel bag): 99.0%
dexmedetomidine retained after autoclaving in moist steam (solution comprising 9 mg/mL sodium chloride, Nexcel bag): 93%
SMILES: Cc1cccc([C@H](C)c2cnc[nH]2)c1C [dexmedetomidine, (S)-4-[1-(2,3-dimethylphenyl)ethyl]-3H-imidazole]
potency loss ([1]; CR3 elastomer copolyester ether bags and PVC bags, autoclaving): 20%
drug recovered in MeOH rinse of emptied bags ([1]; CR3 elastomer copolyester ether bags): Nearly all
drug recovered in MeOH rinse of emptied bags ([1]; PVC bags): 1%
total percent of impurities ([1]; autoclaved premixed composition in PVC and CR3 bags): less than 20%
drug loss ([1]; formulation with a buffer system, plastic bags): ~10%
dexmedetomidine lost through adsorption ([1]; premixed solution in plastic materials): up to 20%
solubility in DEHP [3]: soluble
